# Laboratory results reported in publication PMC11091072, “Targeting bacterial nickel transport with aspergillomarasmine A suppresses virulence-associated Ni-dependent enzymes” (Nature Communications, 2024).
# Values joined by “and” are separate entries in the source; they are usually repeats but may differ in a detail not shown here. Identical values can stand only once. Like-named read-outs stand apart in the source and are kept apart here.
# Assays:
# K. pneumoniae = assay type: cell-based, Klebsiella pneumoniae; details: 200 μM, 24 h exposure
# urease = target: T1, urease (Klebsiella pneumoniae subsp. pneumoniae, UniProt A6TE40+A6TE41+A6TE42); experiment: Urease activity in cell-free extracts (NH3 release, indophenol-hypochlorite); assay type: biochemical; details: for direct inhibition of urease: cell-free extract
# T1 construct: endogenous in cells; host or cells: Klebsiella pneumoniae (ATCC 33495), sonicated and cleared lysate
# Description: The cells were subsequently lysed by sonication, and cell debris was removed with centrifugation (20,000 × g, 10 min). […] Liberated NH3 was quantified using the indophenol-hypocholorite reaction as previously described. The total amount of protein was quantified by Bradford assay using bovine serum albumin as standard. Each assay was performed in duplicate wells.
# FIG S7 Evaluation of Zn-AMA as a direct inhibitor of urease. A) Checkerboard analysis of Zn-AMA and AHA on urease activity of K. […]
# Dose- […]
# response curves of fluorofamide, Zn-AMA, and AMA inhibiting the urease-catalyzed release of NH3 quantified with indophenol hypochlorite. The rates of NH3 production were measured over 20 min and were normalized to total protein concentration. Experiments were performed in duplicate. Individual replicates are shown as colored circles.
# [1] = system: cellular Ni and Zn content of K. pneumoniae; experiment: Cellular metal analysis by ICP-MS (60Ni, 66Zn); assay type: cell-based, Klebsiella pneumoniae; details: for effect on intracellular Ni^2+ levels / effect on intracellular Zn^2+ levels: 200 μM, ICP-MS; for ICP-MS cellular Ni / ICP-MS cellular Zn: K. pneumoniae treated with 200 μM
# Description: The cellular Zn^2+ and Ni^2+ content of K. pneumoniae was carried out according to the method described by Maunders et al.[66] with some modifications. An overnight culture of K. pneumoniae was diluted 1/200 in LB medium (5 mL) and was either untreated or treated with 0.2 mM AMA or Zn-AMA. The cells were grown for 16 h at 37 °C, harvested by centrifugation, and washed twice with PBS containing 5 mM EDTA and twice with ultra-pure water. The cell pellet was subsequently digested in 0.25 mL 65% HNO3 at 80 °C for 30 minutes in borosilicate glass tubes using a water bath. The samples were diluted to 2% HNO3 and filtered through a 0.45 μm syringe filter. ^60Ni and ^66Zn were quantified using a Thermo iCAP Q ICP-MS.
# HEK293 cells = experiment: HEK293 cytotoxicity assay (Cell Titer Glo 2.0); details: for cytotoxicity toward HEK293: up to 512 μg/mL (~1.4 mM)
# [2] = system: [NiFe]-hydrogenase (Hyd-3); experiment: Whole-cell [NiFe] hydrogenase assay (benzyl viologen reduction); assay type: cell-based, Klebsiella pneumoniae; set-up: Benzyl viologen hydrogenase assay (activity): unit not given here
# Description: We reasoned that disruption of Ni^2+ uptake and homeostasis should also perturb the activity of other Ni-dependent enzymes. To examine this possibility, we tested the effects of free AMA and Zn-AMA on Ni-dependent hydrogen metabolism in bacteria. […] K. pneumoniae produces a single [NiFe]-hydrogenase (Hyd-3) as part of the H2-evolving formate hydrogenlyase (FHL) complex and is encoded by the hyc operon (Fig S8)[21]. […] To measure [NiFe]-hydrogenase-catalyzed H2 […], benzyl viologen was used as an artificial electron acceptor, as previously described. Although Hyd-3 is involved in the evolution of H2, previous work in E. coli has shown that it is responsible for 90% of the hydrogen-dependent benzyl viologen reduction in crude extracts and whole-cell assays[41]–[44].
# The whole-cell hydrogenase activity in K. pneumoniae was based on a modified method described by Lacasse et al.[41] […] The cell suspension was diluted 1/100 in LB supplemented with 0.8% glucose, 10 mM MgCl2, and 10 mM potassium phosphate, pH 7.2. […] Following an 18-hour incubation, whole-cell [NiFe] hydrogenase activity was monitored by adding benzyl viologen (1 mg/mL) to each well, followed by continuous monitoring of the change in absorbance at 630 nm using a BioTek Synergy H1 microplate reader in an anaerobic glove box.
# [3] = system: S. aureus urease activity (whole cell); assay type: cell-based, Staphylococcus aureus; details: artificial urine, 24 h; for Staphylococcus aureus urease-dependent pH change (pH): 37 °C; for effect on urease activity: S. aureus
# T1 sequence (A6TE41 whole entry): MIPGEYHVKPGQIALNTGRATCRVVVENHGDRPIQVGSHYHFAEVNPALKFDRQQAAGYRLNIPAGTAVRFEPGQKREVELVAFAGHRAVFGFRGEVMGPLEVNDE
# T1 sequence (A6TE40 whole entry): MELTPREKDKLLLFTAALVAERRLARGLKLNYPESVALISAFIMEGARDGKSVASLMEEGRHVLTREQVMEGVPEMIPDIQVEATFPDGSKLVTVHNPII
# T1 sequence (A6TE42 whole entry): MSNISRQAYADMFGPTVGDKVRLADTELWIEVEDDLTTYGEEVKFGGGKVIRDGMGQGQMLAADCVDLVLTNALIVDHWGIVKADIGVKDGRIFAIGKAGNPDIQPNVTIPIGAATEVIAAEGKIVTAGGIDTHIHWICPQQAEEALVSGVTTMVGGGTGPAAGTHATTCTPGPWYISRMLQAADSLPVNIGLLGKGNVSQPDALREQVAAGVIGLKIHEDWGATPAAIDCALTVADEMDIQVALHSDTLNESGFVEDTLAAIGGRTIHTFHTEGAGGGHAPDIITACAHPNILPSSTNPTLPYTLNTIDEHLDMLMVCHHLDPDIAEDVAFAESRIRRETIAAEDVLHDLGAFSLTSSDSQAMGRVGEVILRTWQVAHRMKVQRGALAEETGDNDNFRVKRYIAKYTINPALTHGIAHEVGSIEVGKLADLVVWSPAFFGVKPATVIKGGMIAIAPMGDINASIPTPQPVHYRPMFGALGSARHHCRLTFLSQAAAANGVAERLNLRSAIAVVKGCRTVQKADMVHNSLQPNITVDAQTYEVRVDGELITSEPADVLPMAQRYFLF
compound,measurement,setting,value
"N[C@@H](CN[C@@H](CN[C@@H](CC(=O)O)C(=O)O)C(=O)O)C(=O)O [AMA, aspergillomarasmine A]",bacterial viability (spot dilutions),K. pneumoniae,do not affect bacterial viability
same,Specific activity (cell-free indophenol urease assay),urease; AMA 0.007813 mM,42.56 nmol/min/mg and 44.10 nmol/min/mg
same,Specific activity (cell-free indophenol urease assay),urease; AMA 0.015625 mM,40.68 nmol/min/mg and 41.88 nmol/min/mg
same,Specific activity (cell-free indophenol urease assay),urease; AMA 0.03125 mM,40.85 nmol/min/mg and 42.39 nmol/min/mg
same,Specific activity (cell-free indophenol urease assay),urease; AMA 0.0625 mM,40.85 nmol/min/mg
same,Specific activity (cell-free indophenol urease assay),urease; AMA 0.125 mM,39.49 nmol/min/mg and 40.51 nmol/min/mg
same,Specific activity (cell-free indophenol urease assay),urease; AMA 0.25 mM,37.95 nmol/min/mg and 38.29 nmol/min/mg
same,Specific activity (cell-free indophenol urease assay),urease; AMA 0.5 mM,35.56 nmol/min/mg and 36.75 nmol/min/mg
same,Specific activity (cell-free indophenol urease assay),urease; AMA 1 mM,35.04 nmol/min/mg and 35.73 nmol/min/mg
same,direct inhibition of urease,urease,excluded the direct inhibition of urease
same,effect on intracellular Ni^2+ levels,[1],reduced intracellular Ni^2+ levels
same,effect on intracellular Zn^2+ levels,[1],without affecting Zn^2+ levels
same,ICP-MS cellular Ni,[1],2.92 µM and 2.63 µM
same,ICP-MS cellular Zn,[1],0.75 µM and 0.88 µM
same,cytotoxicity toward HEK293,HEK293 cells; 48 h,no significant cytotoxicity
same,IC50 (HEK293 viability),"HEK293 cells; 48 h, highest tested 512 µg/mL (MG-132 62.5 µg/mL), Zn and Ni values of low confidence",Does no t fit to the mo del
same,HEK 293T cytotoxicity assay raw signal,HEK293 cells; AMA 0.5 μg/mL,625667 and 666020 and 709951
same,HEK 293T cytotoxicity assay raw signal,HEK293 cells; AMA 1 μg/mL,642619 and 585959 and 657816
same,HEK 293T cytotoxicity assay raw signal,HEK293 cells; AMA 2 μg/mL,663671 and 698910 and 700863
same,HEK 293T cytotoxicity assay raw signal,HEK293 cells; AMA 4 μg/mL,595054 and 606045 and 670753
same,HEK 293T cytotoxicity assay raw signal,HEK293 cells; AMA 8 μg/mL,579865 and 576275 and 764893
same,HEK 293T cytotoxicity assay raw signal,HEK293 cells; AMA 16 μg/mL,628738 and 611425 and 704710
same,HEK 293T cytotoxicity assay raw signal,HEK293 cells; AMA 32 μg/mL,627377 and 612979 and 683402
same,HEK 293T cytotoxicity assay raw signal,HEK293 cells; AMA 64 μg/mL,591894 and 576108 and 744283
same,HEK 293T cytotoxicity assay raw signal,HEK293 cells; AMA 128 μg/mL,558480 and 565965 and 608380
same,HEK 293T cytotoxicity assay raw signal,HEK293 cells; AMA 256 μg/mL,567074 and 538238 and 648309
same,HEK 293T cytotoxicity assay raw signal,HEK293 cells; AMA 512 μg/mL,571681 and 577586 and 600345
same,Benzyl viologen hydrogenase assay (activity),[2]; 1.5625 μM,10.01 and 8.89
same,Benzyl viologen hydrogenase assay (activity),[2]; 3.125 μM,10.26 and 7.90
same,Benzyl viologen hydrogenase assay (activity),[2]; 6.25 μM,10.55 and 8.44
same,Benzyl viologen hydrogenase assay (activity),[2]; 12.5 μM,10.31 and 8.59
same,Benzyl viologen hydrogenase assay (activity),[2]; 25 μM,10.36 and 8.93
same,Benzyl viologen hydrogenase assay (activity),[2]; 50 μM,9.47 and 8.79
same,Benzyl viologen hydrogenase assay (activity),[2]; 100 μM,9.67 and 7.85
same,Benzyl viologen hydrogenase assay (activity),[2]; 200 μM,9.18 and 9.08
same,Benzyl viologen hydrogenase assay (activity),[2]; 400 μM,9.38 and 7.95
same,effect on [NiFe]-hydrogenase activity,"[2]; LB-glucose, anaerobic, whole cell",no impact on [NiFe]-hydrogenase activity
same,Staphylococcus aureus urease-dependent pH change (pH),[3]; 0.19 μM,6.95 and 7.25
same,Staphylococcus aureus urease-dependent pH change (pH),[3]; 0.39 μM,6.96 and 7.10
same,Staphylococcus aureus urease-dependent pH change (pH),[3]; 0.78 μM,6.77 and 6.94
same,Staphylococcus aureus urease-dependent pH change (pH),[3]; 1.56 μM,6.69 and 6.68
same,Staphylococcus aureus urease-dependent pH change (pH),[3]; 3.12 μM,6.42 and 6.51
same,Staphylococcus aureus urease-dependent pH change (pH),[3]; 6.25 μM,6.40 and 6.45
same,Staphylococcus aureus urease-dependent pH change (pH),[3]; 12.5 μM,6.33 and 6.40
same,Staphylococcus aureus urease-dependent pH change (pH),[3]; 25 μM,6.33 and 6.38
same,Staphylococcus aureus urease-dependent pH change (pH),[3]; 50 μM,6.38
same,Staphylococcus aureus urease-dependent pH change (pH),[3]; 100 μM,6.31 and 6.37
same,Staphylococcus aureus urease-dependent pH change (pH),[3]; 200 μM,6.35 and 6.38
same,effect on urease activity,[3],inhibited urease activity similarly
N[C@@H](CN[C@@H](CN[C@@H](CC(=O)O)C(=O)O)C(=O)O)C(=O)O.[Zn+2] [Zn-AMA],bacterial viability (spot dilutions),K. pneumoniae,do not affect bacterial viability
same,Specific activity (cell-free indophenol urease assay),urease; Zn-AMA 0.007813 mM,45.30 nmol/min/mg and 43.25 nmol/min/mg
same,Specific activity (cell-free indophenol urease assay),urease; Zn-AMA 0.015625 mM,43.59 nmol/min/mg and 42.05 nmol/min/mg
same,Specific activity (cell-free indophenol urease assay),urease; Zn-AMA 0.03125 mM,42.91 nmol/min/mg and 40.51 nmol/min/mg
same,Specific activity (cell-free indophenol urease assay),urease; Zn-AMA 0.0625 mM,42.56 nmol/min/mg and 39.66 nmol/min/mg
same,Specific activity (cell-free indophenol urease assay),urease; Zn-AMA 0.125 mM,42.39 nmol/min/mg and 39.32 nmol/min/mg
same,Specific activity (cell-free indophenol urease assay),urease; Zn-AMA 0.25 mM,39.32 nmol/min/mg and 37.78 nmol/min/mg
same,Specific activity (cell-free indophenol urease assay),urease; Zn-AMA 0.5 mM,36.07 nmol/min/mg and 34.19 nmol/min/mg
same,Specific activity (cell-free indophenol urease assay),urease; Zn-AMA 1 mM,31.28 nmol/min/mg and 28.03 nmol/min/mg
same,direct inhibition of urease,urease,excluded the direct inhibition of urease
same,effect on intracellular Ni^2+ levels,[1],reduced intracellular Ni^2+ levels
same,effect on intracellular Zn^2+ levels,[1],without affecting Zn^2+ levels
same,ICP-MS cellular Ni,[1],2.15 µM and 2.37 µM
same,ICP-MS cellular Zn,[1],0.81 µM and 0.97 µM
same,cytotoxicity toward HEK293,HEK293 cells; 48 h,no significant cytotoxicity
same,IC50,"HEK293 cells; Homo sapiens, HEK293, 48 h, read-out: IC50 (HEK293 viability)",> 512 µg/mL
same,HEK 293T cytotoxicity assay raw signal,HEK293 cells; Zn-AMA 0.5 μg/mL,787289 and 688554 and 688484
same,HEK 293T cytotoxicity assay raw signal,HEK293 cells; Zn-AMA 1 μg/mL,778862 and 676746 and 680280
same,HEK 293T cytotoxicity assay raw signal,HEK293 cells; Zn-AMA 2 μg/mL,730695 and 661495 and 777158
same,HEK 293T cytotoxicity assay raw signal,HEK293 cells; Zn-AMA 4 μg/mL,783723 and 676080 and 794996
same,HEK 293T cytotoxicity assay raw signal,HEK293 cells; Zn-AMA 8 μg/mL,742661 and 700936 and 674120
same,HEK 293T cytotoxicity assay raw signal,HEK293 cells; Zn-AMA 16 μg/mL,815769 and 690170 and 672316
same,HEK 293T cytotoxicity assay raw signal,HEK293 cells; Zn-AMA 32 μg/mL,682089 and 773769 and 699603
same,HEK 293T cytotoxicity assay raw signal,HEK293 cells; Zn-AMA 64 μg/mL,773018 and 718789 and 808685
same,HEK 293T cytotoxicity assay raw signal,HEK293 cells; Zn-AMA 128 μg/mL,636555 and 716494 and 658016
same,HEK 293T cytotoxicity assay raw signal,HEK293 cells; Zn-AMA 256 μg/mL,744022 and 626132 and 622056
same,HEK 293T cytotoxicity assay raw signal,HEK293 cells; Zn-AMA 512 μg/mL,618617 and 604431 and 563165
same,Benzyl viologen hydrogenase assay (activity),[2]; 1.5625 μM,9.43 and 9.72
same,Benzyl viologen hydrogenase assay (activity),[2]; 3.125 μM,9.23 and 9.47
same,Benzyl viologen hydrogenase assay (activity),[2]; 6.25 μM,8.98 and 9.82
same,Benzyl viologen hydrogenase assay (activity),[2]; 12.5 μM,9.03 and 8.64
same,Benzyl viologen hydrogenase assay (activity),[2]; 25 μM,7.51 and 6.87
same,Benzyl viologen hydrogenase assay (activity),[2]; 50 μM,5.01 and 4.71
same,Benzyl viologen hydrogenase assay (activity),[2]; 100 μM,2.11
same,Benzyl viologen hydrogenase assay (activity),[2]; 200 μM,0.69 and 0.39
same,EC50,"[2]; read-out: EC50, Hyd-3 [NiFe]-hydrogenase inhibition, LB-glucose, anaerobic, whole cell, benzyl viologen",50.8 ± 4.4 µM
same,Staphylococcus aureus urease-dependent pH change (pH),[3]; 0.19 μM,7.24 and 7.25
same,Staphylococcus aureus urease-dependent pH change (pH),[3]; 0.39 μM,7.28 and 7.12
same,Staphylococcus aureus urease-dependent pH change (pH),[3]; 0.78 μM,6.95 and 7.00
same,Staphylococcus aureus urease-dependent pH change (pH),[3]; 1.56 μM,6.76 and 6.81
same,Staphylococcus aureus urease-dependent pH change (pH),[3]; 3.12 μM,6.56 and 6.59
same,Staphylococcus aureus urease-dependent pH change (pH),[3]; 6.25 μM,6.45 and 6.49
same,Staphylococcus aureus urease-dependent pH change (pH),[3]; 12.5 μM,6.41 and 6.45
same,Staphylococcus aureus urease-dependent pH change (pH),[3]; 25 μM,6.38 and 6.40
same,Staphylococcus aureus urease-dependent pH change (pH),[3]; 50 μM,6.39 and 6.40
same,Staphylococcus aureus urease-dependent pH change (pH),[3]; 100 μM,6.37 and 6.40
same,Staphylococcus aureus urease-dependent pH change (pH),[3]; 200 μM,6.41 and 6.39
same,effect on urease activity,[3],inhibited urease activity similarly
